According to ChEMBL document CHEMBL5107973, “Synthesis and structure-activity relationships of pirfenidone derivatives as anti-fibrosis agents in vitro” (RSC Med Chem, 2022):
Each block holds one compound with its values, some of them ahead of it.

Tests used:
NIH3T3 [1] = test: Antiproliferative activity against TGFbeta-induced mouse NIH3T3 cells assessed as cell growth inhibition incubated for 48 hrs by CCK-8 assay; assay type: functional, cell-based; conditions: NIH3T3, 48 h
NIH3T3 [2] = test: Antiproliferative activity against TGFbeta-induced mouse NIH3T3 cells assessed as cell growth inhibition at 1 mM incubated for 48 hrs by CCK-8 assay; assay type: functional; conditions: NIH3T3, 48 h
[3] = Metabolic stability in human liver microsomes assessed as intrinsic clearance measured upto 45 mins in presence of NADPH by LC/MS analysis; assay type: ADME, Microsome; conditions: read-out: CLH
[4] = Metabolic stability in rat liver microsomes assessed as intrinsic clearance measured upto 45 mins in presence of NADPH by LC/MS analysis; assay type: ADME, Microsome; conditions: read-out: CLH
[5] = Metabolic stability in human liver microsomes assessed as half life measured upto 45 mins in presence of NADPH by LC/MS analysis; assay type: ADME, Microsome
[6] = Metabolic stability in rat liver microsomes assessed as half life measured upto 45 mins in presence of NADPH by LC/MS analysis; assay type: ADME, Microsome
NIH3T3 [7] = test: Induction of apoptosis in TGFbeta-induced mouse NIH3T3 cells assessed as increase in apoptosis rate at 10 mM incubated for 48 hrs by Annexin V-FITC/PI staining based flow cytometry; assay type: functional
NIH3T3 [8] = test: Anti-fibrogenic activity against mouse NIH3T3 cells assessed as inhibition of TGFbeta-induced COL1 protein expression at 0.5 to 10 mM incubated for 48 hrs by western blot assay; assay type: functional, cell-based; conditions: dose 0.5-10 mM, DDE = dose-dependent effect
NIH3T3 [9] = test: Anti-fibrogenic activity against mouse NIH3T3 cells assessed as inhibition of TGFbeta-induced Fn protein expression at 0.5 to 10 mM incubated for 48 hrs by western blot assay; assay type: functional, cell-based; conditions: dose 0.5-10 mM, DDE = dose-dependent effect
NIH3T3 [10] = test: Anti-fibrogenic activity against mouse NIH3T3 cells assessed as inhibition of TGFbeta-induced alpha-SMA protein expression at 0.5 to 10 mM incubated for 48 hrs by western blot assay; assay type: functional, cell-based; conditions: dose 0.5-10 mM, DDE = dose-dependent effect
[11] = Half life in rat at 2 mg/kg,iv by HPLC-UV analysis; assay type: ADME, organism-based; conditions: in vivo
[12] = Half life in rat at 10 mg/kg,po by HPLC-UV analysis; assay type: ADME, organism-based; conditions: in vivo
[13] = Tmax in rat at 2 mg/kg,iv by HPLC-UV analysis; assay type: ADME, organism-based; conditions: in vivo
[14] = Tmax in rat at 10 mg/kg,po by HPLC-UV analysis; assay type: ADME, organism-based; conditions: in vivo
[15] = Cmax in rat at 2 mg/kg,iv by HPLC-UV analysis; assay type: ADME, organism-based; design: dose 2 mg/kg, route iv; conditions: in vivo
[16] = Cmax in rat at 10 mg/kg,po by HPLC-UV analysis; assay type: ADME, organism-based; design: dose 10 mg/kg, route po; conditions: in vivo
[17] = AUC (0-t) in rat at 2 mg/kg,iv by HPLC-UV analysis; assay type: ADME, organism-based; design: dose 2 mg/kg, route iv; conditions: in vivo
[18] = AUC (0-t) in rat at 10 mg/kg,po by HPLC-UV analysis; assay type: ADME, organism-based; design: dose 10 mg/kg, route po; conditions: in vivo
[19] = AUC (0-infinity) in rat at 2 mg/kg,iv by HPLC-UV analysis; assay type: ADME, organism-based; design: time infinity, dose 2 mg/kg, route iv; conditions: in vivo
[20] = AUC (0-infinity) in rat at 10 mg/kg,po by HPLC-UV analysis; assay type: ADME, organism-based; design: time infinity, dose 10 mg/kg, route po; conditions: in vivo
[21] = MRT (0 to t) in rat at 2 mg/kg,iv by HPLC-UV analysis; assay type: ADME, organism-based; conditions: in vivo
[22] = MRT (0 to t) in rat at 10 mg/kg,po by HPLC-UV analysis; assay type: ADME, organism-based; conditions: in vivo
[23] = Oral bioavailability in rat at 10 mg/kg by HPLC-UV analysis; assay type: ADME, organism-based; conditions: in vivo
NIH3T3 [24] = test: Anti-fibrogenic activity against mouse NIH3T3 cells assessed as inhibition of TGFbeta-induced migration rate at 0.1 to 0.4 mM incubated for 48 hrs by wound healing assay; assay type: functional, cell-based; conditions: dose 0.1-0.4 mM, DDE = dose-dependent effect
NIH3T3 [25] = test: Induction of apoptosis in TGFbeta-induced mouse NIH3T3 cells assessed as increase in apoptosis rate at 0.05 mM incubated for 48 hrs by Annexin V-FITC/PI staining based flow cytometry; assay type: functional
NIH3T3 [26] = test: Induction of apoptosis in TGFbeta-induced mouse NIH3T3 cells assessed as increase in apoptosis rate at 0.05 to 0.2 mM incubated for 48 hrs by Annexin V-FITC/PI staining based flow cytometry; assay type: functional, cell-based; conditions: dose 0.05-0.2 mM, DDE = dose-dependent effect
NIH3T3 [27] = test: Anti-fibrogenic activity against mouse NIH3T3 cells assessed as inhibition of TGFbeta-induced COL1 protein expression at 0.01 to 0.2 mM incubated for 48 hrs by western blot assay; assay type: functional, cell-based; conditions: dose 0.01-0.2 mM, DDE = dose-dependent effect
NIH3T3 [28] = test: Anti-fibrogenic activity against mouse NIH3T3 cells assessed as inhibition of TGFbeta-induced Fn protein expression at 0.01 to 0.2 mM incubated for 48 hrs by western blot assay; assay type: functional, cell-based; conditions: dose 0.01-0.2 mM, DDE = dose-dependent effect
NIH3T3 [29] = test: Anti-fibrogenic activity against mouse NIH3T3 cells assessed as inhibition of TGFbeta-induced alpha-SMA protein expression at 0.01 to 0.2 mM incubated for 48 hrs by western blot assay; assay type: functional, cell-based; conditions: dose 0.01-0.2 mM, DDE = dose-dependent effect
NIH3T3 [30] = test: Anti-fibrogenic activity against mouse NIH3T3 cells assessed as reduction in TGFbeta-induced Smad2 phosphorylation level at 0.01 to 0.2 mM incubated for 48 hrs by western blot assay; assay type: functional, cell-based; conditions: dose 0.01-0.2 mM, DDE = dose-dependent effect
NIH3T3 [31] = test: Anti-fibrogenic activity against mouse NIH3T3 cells assessed as reduction in TGFbeta-induced Smad3 phosphorylation level at 0.01 to 0.2 mM incubated for 48 hrs by western blot assay; assay type: functional, cell-based; conditions: dose 0.01-0.2 mM, DDE = dose-dependent effect

SMILES: Cc1ccc(CC(=O)Nc2ccc(=O)n(-c3ccccc3)c2)c(C)c1
IC50 (NIH3T3 [1]): 0.24 mM
inhibition at 1000 µM (NIH3T3 [2]): 68.9%

SMILES: Cc1ccc(CC(=O)Nc2ccc(=O)n(-c3ccccc3)c2)cc1
IC50 (NIH3T3 [1]): 0.95 mM
inhibition at 1000 µM (NIH3T3 [2]): 52.2%

SMILES: O=C(Cc1ccccc1C(F)(F)F)Nc1ccc(=O)n(-c2ccccc2)c1
IC50 (NIH3T3 [1]): 1.36 mM
inhibition at 1000 µM (NIH3T3 [2]): 37.8%

SMILES: O=C(Cc1cccc(Br)c1)Nc1ccc(=O)n(-c2ccccc2)c1
inhibition at 1000 µM (NIH3T3 [2]): 2.1%

SMILES: O=C(Cc1ccc(F)cc1)Nc1ccc(=O)n(-c2ccccc2)c1
IC50 (NIH3T3 [1]): 1.56 mM
inhibition at 1000 µM (NIH3T3 [2]): 39%

SMILES: O=C(Cc1ccccc1Br)Nc1ccc(=O)n(-c2ccccc2)c1
IC50 (NIH3T3 [1]): 1.09 mM
inhibition at 1000 µM (NIH3T3 [2]): 48.9%

SMILES: O=C(Cc1cccc(F)c1)Nc1ccc(=O)n(-c2ccccc2)c1
inhibition at 1000 µM (NIH3T3 [2]): 21.9%

SMILES: O=C(CC1CCCCC1)Nc1ccc(=O)n(-c2ccccc2)c1
inhibition at 1000 µM (NIH3T3 [2]): 4.5%

SMILES: O=C(Cc1ccccc1Cl)Nc1ccc(=O)n(-c2ccccc2)c1
IC50 (NIH3T3 [1]): 1.98 mM
inhibition at 1000 µM (NIH3T3 [2]): 35.2%

SMILES: O=C(Cc1ccc(Br)cc1)Nc1ccc(=O)n(-c2ccccc2)c1
IC50 (NIH3T3 [1]): 1.11 mM
inhibition at 1000 µM (NIH3T3 [2]): 45.7%

SMILES: Cc1ccccc1CC(=O)Nc1ccc(=O)n(-c2ccccc2)c1
IC50 (NIH3T3 [1]): 0.73 mM
inhibition at 1000 µM (NIH3T3 [2]): 56.1%

SMILES: O=C(Cc1ccc(Cl)cc1)Nc1ccc(=O)n(-c2ccccc2)c1
IC50 (NIH3T3 [1]): 1.34 mM
inhibition at 1000 µM (NIH3T3 [2]): 37.1%

SMILES: O=C(Cc1ccccc1F)Nc1ccc(=O)n(-c2ccccc2)c1
inhibition at 1000 µM (NIH3T3 [2]): 28.7%

SMILES: O=C(Nc1ccc(=O)n(-c2ccccc2)c1)c1ccccc1F
inhibition at 1000 µM (NIH3T3 [2]): 3.5%

SMILES: Cc1cccc(CC(=O)Nc2ccc(=O)n(-c3ccccc3)c2)c1
inhibition at 1000 µM (NIH3T3 [2]): 19.8%

SMILES: O=C(Cc1cccc(Cl)c1)Nc1ccc(=O)n(-c2ccccc2)c1
inhibition at 1000 µM (NIH3T3 [2]): 27.6%

SMILES: O=C(Cc1c(F)cc(F)cc1F)Nc1ccc(=O)n(-c2ccccc2)c1
inhibition at 1000 µM (NIH3T3 [2]): 28.1%

CLint scaled [3]: 1230 mL/min/kg
CLint scaled [4]: 1730 mL/min/kg
half-life [5]: 5.76 min
half-life [6]: 1.46 min
SMILES: Cc1ccc(=O)n(-c2ccccc2)c1 [PIRFENIDONE]
IC50 (NIH3T3 [1]): 13.7 mM
Activity (NIH3T3 [7]): 31.9%
Activity (NIH3T3 [8]): Dde
Activity (NIH3T3 [9]): Dde
Activity (NIH3T3 [10]): Dde

CLint scaled [3]: 63.9 mL/min/kg
CLint scaled [4]: 110 mL/min/kg
half-life [5]: 27.2 min
half-life [6]: 22.5 min
half-life [11]: 41.6 min
half-life [12]: 166 min
Tmax [13]: 4.98 min
Tmax [14]: 60.7 min
Cmax [15]: 712 ng/mL
Cmax [16]: 68.5 ng/mL
AUC(0-t) [17]: 701 ng·h/mL
AUC(0-t) [18]: 332 ng·h/mL
AUC [19]: 701.17 ng·h/mL
AUC [20]: 406.5 ng·h/mL
MRT last [21]: 51.4 min
MRT last [22]: 290 min
F [23]: 51%
SMILES: Cc1cc(C)c(CC(=O)Nc2ccc(=O)n(-c3ccccc3)c2)c(C)c1
IC50 (NIH3T3 [1]): 0.14 mM
inhibition at 1000 µM (NIH3T3 [2]): 74.4%
Activity (NIH3T3 [24]): Dde
Activity (NIH3T3 [25]): 34.5%
Activity (NIH3T3 [26]): Dde
Activity (NIH3T3 [27]): Dde
Activity (NIH3T3 [28]): Dde
Activity (NIH3T3 [29]): Dde
Activity (NIH3T3 [30]): Dde
Activity (NIH3T3 [31]): Dde
